Laboratory results as given in US20240293405A1, “(1H-PYRROLO[2,3-B]PYRIDIN-1-YL)PYRIMIDIN-2-YL-AMINO-PHENYL-ACRYLAMIDE INHIBITORS OF EGFR FOR USE IN THE TREATMENT OF BRAIN TUMORS” (Dana-Farber Cancer Institute, Inc., priority 2021, published 2024).
“And” between values parts separate entries of the source, which are not always exact repeats. Equal entries are not always repeated. “Also recorded” adds a separate entry of the source. Where two headings read alike, the source gives them in different places.

Columns and labels:
CPEvIII GBM = experiment: Intracranial orthotopic CPEvIII allograft in mice; type: in vivo, mouse
Procedure: Cells (100,000 cells resuspended in 1 μl PBS) were intracranially injected into the right striatum (0 mm anterior, 2 mm lateral, and 2.5 mm ventral to bregma) of 8-10 week-old ICR-SCID mice. Animals were monitored daily for development of neurological defects.
Neural stem cells (NSCs) from E14.5 embryonic mice (Cdkn2a-null; Ptenf/f) striata were isolated and cultured as previously described (Rietze, R. L., and Reynolds, B. A. (2006). Methods in enzymology 419, 3-23). NSCs were infected twice with adenovirus expressing Cre recombinase (AdCre; MOI50) (University of Iowa) to knock out floxed Pten. Cells were then transduced with retrovirus expressing EGFRvIII (pBabe-puro-EGFRvIII) (from Dr. Charles Stiles, DFCI) and selected with 1 μg/ml puromycin. The resulting cells (Cdkn2anull; Ptennull; EGFRvIII, denominated CPEvIII) can form a glioma after grafted into the mouse brain. Tumors were then isolated and mechanically dissociated for expansion in vitro and in vivo.
In GBM, EGFR mutations frequently coexist with CDKN2A deletion and PTEN deficiency (Brennan, C. W., et al. (2013). Cell 155, 462-477; Cancer Genome Atlas Research, N. (2008). Nature 455, 1061-1068). A syngeneic genetically engineered mouse (GEM) model of GBM driven by Cdkn2a and Pten double deletion concomitant with EGFRvIII expression (termed CPEvIII) has been generated. […]

[1] = tested on: broad human receptor profile; experiment: Receptor selectivity screen; type: binding; settings: 10 μM free base
Procedure: Compound 1 and/or Compound 2 (active/major metabolite) were evaluated for off-target activity in a large panel of receptors and ion channels, including a human ether-i-go-go-related gene (hERG) assay. Compound 1 was assessed comprehensively in Good Laboratory Practice (GLP) safety pharmacology studies, including studies of cardiovascular, respiratory and central nervous system function.

[2] = Plasma, brain and lung levels after 7 days oral dosing; type: in vivo, Sprague Dawley Rats; settings: Sprague Dawley, rat, 24 hrs after last dosing
[3] = tested on: H1975 cells: EGFR L858R-T790M; experiment: H1975 SQ lung tumor xenograft in NOD.SCID mice; type: in vivo; settings: H1975 lung tumor implants, oral
Procedure: (§1) Compound 1 was also evaluated in xenograft models of lung tumor cell lines harboring EGFR single and double mutations in the mouse.

[4] = H1975 SQ lung tumor xenograft in NOD.SCID mice; type: in vivo; settings: NOD.SCID, mouse, plasma; H1975 model, 4 hours post-dose, oral; read-out: plasma concentration at which anti-tumor activity was noted
Procedure: as §1

[5] = Pharmacokinetics in rats (IV, PO); type: in vivo, rat; settings: for bioavailability: independent of dose
Source text: Exposure was generally dose proportional.

[6] = Oral dog 4-week toxicity study with toxicokinetics; type: in vivo, beagle dogs; settings: for HNSTD: 4-week oral
Procedure: Compound 1 (0, 10, 30, and 100 mg/kg/day) was given orally, once daily by gavage, to male and female beagle dogs (4/sex) for up to 28 days. […] The cause of death in this high-dose male was attributed to myocardial degeneration. This lesion was not observed in any other dog on study. Increases in alkaline phosphatase, globulin, cholesterol, triglycerides and fibrinogen and decreased reticulocyte counts noted in the high-dose group at mid-study returned towards baseline by the end of the study following 11/12 days of recovery. Testicular changes at all doses (seminiferous epithelial vacuolation at 10 and 30 mg/kg and degeneration/atrophy at 100 mg/kg) were not reversible in this short-term study; the reversibility period was not long enough to assess reversibility of testicular changes.
The increases were generally dose-proportional or greater-than dose-proportional on Day 1 and Day 28. Gender difference was not observed. No significant accumulation of Compound 1 or Compound 2 was observed.
Thirty-two beagle dogs (conventional, naive) were divided into four groups. Each group consists of four male and four female. Group 1 beagle dogs were administered vehicle and groups 2-4 beagle dogs were administered Compound 1 at 10 mg/kg, 30 mg/kg, and 100 mg/kg, respectively, by oral gavage once daily for 28 consecutive days (Table 15). […] Cmax (ng/mL) and AUClast (hr*ng/mL) of Compound 1 on day 1 were obtained for groups 2-4 (Table 15).

[7] = Oral rat dose-range toxicity study; type: in vivo
Procedure: Male and female Sprague-Dawley rats were given Compound 1 orally by gavage either once (30, 100, 500, 1000 mg/kg/day) or once daily for up to 14 days (30, 100, 300 mg/kg/day). […] […]; this group was terminated on Day 9. […] The STD10 was estimated to be 100 mg/kg/day in this study.

[8] = tested on: phosphorylated EGFR and cell viability; experiment: In vitro GBM studies, summary (phosphorylated EGFR and cell viability); type: cell-based; settings: GBM models; read-out: IC50 range in in vitro studies targeting decreases in phosphorylated EGFR and cell viability
Source text: Compound 1, a third-generation tyrosine kinase inhibitor, is under development for GBM (Wang 2020) Compound 1 binds covalently to its target.

[9] = both sexes, beagle, in vivo, dog, day 1, oral gavage

C=CC(=O)Nc1cc(Nc2nccc(-n3ccc4cccnc43)n2)c(OC)cc1N(C)CCN(C)C [Compound 1, N-(5-((4-(1H-pyrrolo[2,3-b]pyridin-1-yl)pyrimidin-2-yl)amino)-2-((2-(dimethylamino)ethyl)(methyl)amino)-4-methoxyphenyl)acrylamide]
body weight during treatment (CPEvIII GBM; 75 mg/kg QD): no significant loss of body weight
phosphorylation levels of EGFRvIII in tumors (IHC) (CPEvIII GBM; tumors at end point, 75 mg/kg): reduced
off-target risk from receptor binding studies [1]: little off-target risk
concentration at 24 h ([2]; brain, 10 mg/kg po qd 7 days, Female, read-out: Brain): 39.8 ng/g
concentration at 24 h ([2]; brain, 10 mg/kg po qd 7 days, Male, read-out: Brain): 14.9 ng/g
concentration at 24 h ([2]; brain, 50 mg/kg po qd 7 days, Female, read-out: Brain): 3770 ng/g
concentration at 24 h ([2]; brain, 50 mg/kg po qd 7 days, Male, read-out: Brain): 2080 ng/g
concentration at 24 h ([2]; lung, 10 mg/kg po qd 7 days, Female, read-out: Lung): 1220 ng/g
concentration at 24 h ([2]; lung, 10 mg/kg po qd 7 days, Male, read-out: Lung): 329 ng/g
concentration at 24 h ([2]; lung, 50 mg/kg po qd 7 days, Female, read-out: Lung): 45000 ng/g
concentration at 24 h ([2]; lung, 50 mg/kg po qd 7 days, Male, read-out: Lung): 9710 ng/g
concentration at 24 h ([2]; plasma, 10 mg/kg po qd 7 days, Female, read-out: Plasma): 0.0208 µg/mL
concentration at 24 h ([2]; plasma, 10 mg/kg po qd 7 days, Male, read-out: Plasma): 0.0106 µg/mL
concentration at 24 h ([2]; plasma, 50 mg/kg po qd 7 days, Female, read-out: Plasma): 0.244 µg/mL
concentration at 24 h ([2]; plasma, 50 mg/kg po qd 7 days, Male, read-out: Plasma): 0.149 µg/mL
tumor response [3]: substantial tumor regression
concentration at 4 h [4]: 800 ng/mL and 1.6 µM
clearance [5]: moderately high clearance; also recorded: moderately high-clearance; also recorded: Moderate high-clearance
volume of distribution [5]: large volume of distribution
clearance ([5]; listed as Compound 11): relatively high clearance rate
bioavailability ([5]; rat, in vivo, po): ~50%
half-life ([5]; rat, plasma, Compound 2 as metabolite): ~5 h
Tmax ([5]; rat, plasma, po, Compound 2 as metabolite): ~5 h
bioavailability ([5]; rat, plasma, po): 50%
mortality ([6]; 100 mg/kg/day, attributed to myocardial degeneration): one male was found dead on Day 13
Cmax ([6]; beagle, in vivo, po, dog Day 1, 10 mg/kg/day, Female): 0.142 µg/mL
AUC(0-t) ([6]; beagle, in vivo, po, dog Day 1, 10 mg/kg/day, Female, read-out: AUClast): 2.06 µg·h/mL
Cmax ([6]; beagle, in vivo, po, dog Day 1, 10 mg/kg/day, Male): 0.166 µg/mL
AUC(0-t) ([6]; beagle, in vivo, po, dog Day 1, 10 mg/kg/day, Male, read-out: AUClast): 1.65 µg·h/mL
Cmax ([6]; beagle, in vivo, po, dog Day 1, 30 mg/kg/day, Female): 0.17 µg/mL
AUC(0-t) ([6]; beagle, in vivo, po, dog Day 1, 30 mg/kg/day, Female, read-out: AUClast): 1.96 µg·h/mL
Cmax ([6]; beagle, in vivo, po, dog Day 1, 30 mg/kg/day, Male): 0.317 µg/mL
AUC(0-t) ([6]; beagle, in vivo, po, dog Day 1, 30 mg/kg/day, Male, read-out: AUClast): 3.79 µg·h/mL
Cmax ([6]; beagle, in vivo, po, dog Day 1, 100 mg/kg/day, Female): 0.293 µg/mL
AUC(0-t) ([6]; beagle, in vivo, po, dog Day 1, 100 mg/kg/day, Female, read-out: AUClast): 4.05 µg·h/mL
Cmax ([6]; beagle, in vivo, po, dog Day 1, 100 mg/kg/day, Male): 0.367 µg/mL
AUC(0-t) ([6]; beagle, in vivo, po, dog Day 1, 100 mg/kg/day, Male, read-out: AUClast): 5.19 µg·h/mL
NOAEL ([6]; both sexes, beagle, in vivo, oral, 4-week Dog toxicology): 10 mg/kg
Tmax [6, 9]: 4 h
half-life [6, 9]: 8 h
NOEL for myocardial risk ([6]; dog): 30 mg/kg
HNSTD ([6]; dog): 30 mg/kg
HNSTD ([6]; dog, estimated): 30 mg/kg/day
Cmax ([6]; female, beagle, in vivo, dog Day 28 mean, 10 mg/kg Compound 1 PO, F, Compound 2 as metabolite): 0.867 µg/mL
AUC(0-t) ([6]; female, beagle, in vivo, dog Day 28 mean, 10 mg/kg Compound 1 PO, F, Compound 2 as metabolite, read-out: AUC0-24): 6.54 µg·h/mL
Cmax ([6]; female, beagle, in vivo, dog Day 28 mean, 30 mg/kg Compound 1 PO, F, Compound 2 as metabolite): 0.508 µg/mL
AUC(0-t) ([6]; female, beagle, in vivo, dog Day 28 mean, 30 mg/kg Compound 1 PO, F, Compound 2 as metabolite, read-out: AUC0-24): 3.49 µg·h/mL
human equivalent dose (HED) of the NOEL for myocardial risk ([6]; from dog NOEL 30 mg/kg): 15 mg/kg
Cmax ([6]; male, beagle, in vivo, dog Day 28 mean, 10 mg/kg Compound 1 PO, M, Compound 2 as metabolite): 0.578 µg/mL
AUC(0-t) ([6]; male, beagle, in vivo, dog Day 28 mean, 10 mg/kg Compound 1 PO, M, Compound 2 as metabolite, read-out: AUC0-24): 3.88 µg·h/mL
Cmax ([6]; male, beagle, in vivo, dog Day 28 mean, 30 mg/kg Compound 1 PO, M, Compound 2 as metabolite): 0.974 µg/mL
AUC(0-t) ([6]; male, beagle, in vivo, dog Day 28 mean, 30 mg/kg Compound 1 PO, M, Compound 2 as metabolite, read-out: AUC0-24): 7.18 µg·h/mL
tolerability of a single oral dose ([7]; 30 to 1000 mg/kg): well tolerated
toxicity at 30 mg/kg/day ([7]; 14 days): No significant toxicity
STD10 ([7]; up to 14 days oral, estimated): 100 mg/kg/day
IC50 [8]: 0.17 to 3.28 µM
